Data taken from patent US20240050409A1, “Methods and Compositions for Treating Psychotic Disorders” (SOUND PHARMACEUTICALS INCORPORATED, priority 2014, published 2024).
“Also recorded” adds a separate entry of the source.

Columns and labels:
NVHL rats [1] = assay: Mismatch negativity (MMN), auditory evoked potentials, NVHL rats; format: in vivo, Sprague-Dawley rats; details: juvenile treatment
Method: Abnormal excitation-inhibition balance in adult NVHL rats can yield altered information processing that would be prevented by NAC treatment if it depended on oxidative stress. Mismatch negativity (MMN) was tested using auditory evoked potentials in an oddball paradigm in SHAM (n=6), NVHL (n=3), and NAC-treated NVHL rats (n=3). MMN has high translational relevance, as it is attenuated in schizophrenia patients (Javitt et al., 1993) and in animal models (Ehrlichman et al., 2009). Electroencephalographic (EEG) electrodes were implanted in NVHL, NAC-treated NVHL, and SHAM rats. This observation is consistent with the effect of NAC on MMN in patients (Lavoie et al., 2008), and indicates the NVHL model reproduces an important disease marker that can be prevented by juvenile antioxidant treatment. As MMN depends on NMDA receptor function (Umbricht et al., 2000) and NMDA hypofunction in PVI is suspected in schizophrenia, it is possible that MMN improvement with NAC results from restored PVI activity. […]
Mismatch Negativity: NVHL, NAC-treated NVHL, and sham female rats were implanted with chronic EEG electrodes under isoflurane anesthesia. […] A difference wave was constructed by subtracting the standard wave from the deviant wave, and MMN was quantified by measuring the area under the curve in the period between 35 and 100 ms after the stimulus. […]

NVHL rats [2] = assay: Prepulse inhibition of the acoustic startle response (PPI) in NVHL rats; format: in vivo, Sprague-Dawley rats; details: adult NVHL rats
Method: To assess whether juvenile oxidative stress leads to behavioral deficits, a behavioral paradigm was used for testing in both animal models and schizophrenia patients. Prepulse inhibition of the acoustic startle response (PPI) is a measure of sensorimotor gating that is reduced in patients (Geyer and Braff, 1987) and NVHL rats (Lipska et al., 1995). PPI was tested in adult sham (n=11), NAC-treated sham (n=12), NVHL (n=9), and NAC-treated NVHL rats (n=17). In addition to loss of PVI maturation and electrophysiological anomalies, developmental oxidative stress in juvenile NVHL rats can cause schizophrenia-relevant adult behavioral deficits.
The beneficial effect of NAC treatment includes a large postnatal treatment that starts prior to the lesion and stops once rats become young adults. For full translational value one determines whether NAC is efficacious when started at an age that corresponds to the time when prodromal stages can be identified in humans. In another set of rats, NAC was administered in the drinking water starting at P35, an age that in rats is equivalent to early adolescence. For PPI deficits was tested in adult SHAM (n=15), untreated NVHL (n=12), and NAC-treated NVHL rats (n=14).
Ebselen is a glutathione peroxidase (GPx) mimic (Muller et al., 1984) that induces GPx expression (Kil et al., 2007) and enhances GSH levels in neurons, replenishing GSH depleted by neurotoxic mechanisms (Pawlas and Malecki, 2007). PPI was tested in adult vehicle-treated SHAM (n=10), Ebselen-treated SHAM (n=7), vehicle-treated NVHL (n=8), and Ebselen-treated NVHL rats (n=9), and Ebselen treatment during adolescence reversed PPI deficits in NVHL rats (as shown in FIG. 15D).
In another group of rats, the effects of the NADPH oxidase inhibitor Apocynin was assessed while delivering through juvenile and adolescent stages. PPI was tested in adult vehicle-treated SHAM (n=10), apocynin-treated SHAM (n=11), vehicle treated NHVL (n=7), and apocynin-treated NVHL (n=5). As illustrated in FIG. 15C a reversal of PPI deficits was observed.
Antioxidant pretreatment regimen: NAC (BioAdvantexPharma, Mississauga, Ontario, Canada) was administered in the drinking water at 900 mg/l. NAC treatment started at P5 or at P35, and previous work in mice has shown that NAC consumed by the dam is transmitted to the pups through her milk (das Neves Duarte et al., 2012). NAC treatment ended at P50. Fresh solutions were prepared every 2-3 days. Ebselen (Sound Pharmaceuticals Inc., Seattle, WA) was administered i.p. 5 days a week starting at P35 until the day of PPI testing (P60). Stock ebselen solution (20 mg/ml DMSO, frozen aliquots) was diluted 1:5 in sterile water and administered at a dose of 10 mg/kg. Control animals received an equivalent concentration of DMSO diluted 1:5 in water. Apocynin (Sigma-Aldrich, St. Louis, MO) was administered in the drinking water at a target dose of 100 mg/kg (Nwokocha et al., 2013). Prior to weaning at P21, drinking water contained a dose of 2 g apocynin per 0.5 1 of water, to ensure delivery through the dam's milk. Apocynin concentration was lowered after weaning to 750 mg/1 to best approximate the target dose. Treatment lasted from P5 to P50 with fresh solutions prepared every other day.
Prepulse inhibition: Starting at P60, both male and female rats were tested for PPI, as described previously (Feleder et al., 2010). As PPI deficits in NVHL rats are most evident when rats are challenged with apomorphine (Lipska et al., 1995), we injected apomorphine (0.1 mg/kg, i.p.) immediately prior to the PPI test session. Rats were placed in a sound- attenuated startle chamber (San Diego Instruments, San Diego, CA) with a 70 dB background white noise. After a 5 min adaptation period, the PPI test was initiated with pseudorandom trials every 15 to 25 seconds. Either pulse (120 dB), prepulse (75 dB, 80 dB, or 85 dB), no pulse or prepulse +pulse were delivered. […]

CC(=O)N[C@@H](CS)C(=O)O [NAC, N-acetyl cysteine] was tested, and the “effect on MMN deficit” value (NVHL rats [1]) was “improving”, the “effect on PPI deficit” value (NVHL rats [2]; apomorphine 0.1 mg/kg i.p. challenge, juvenile treatment P5 to P50, drinking water) was “prevented; also recorded: completely reversed” and the “effect on PPI deficit” value (NVHL rats [2]; adolescent treatment P35 to P50, drinking water, tested P61) was “prevented”.
